US20050282755A1, “Compositions having antimicrobial activity and uses thereof” (priority 2004, published 2005)
Converted amounts (≈) assume the structure as drawn. Non-standard residues stand in square brackets, D forms with d. Residues, ends and D or L forms follow the SMILES beside them. *: point of attachment. Palmitoyl = CCCCCCCCCCCCCCCC(=O)*; Lauroyl = CCCCCCCCCCCC(=O)*

How the values were obtained:
Type in all cases: cell-based
[1] = test system: Pseudomonas aeruginosa ATCC 27853; assay: MIC, NCCLS M7-A6 broth microdilution (Table 9, no superscript); conditions: ATCC 27853
Outline: (§1)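 Log-phase bacteria were added to wells containing peptide in cation-adjusted Mueller Hinton broth at a final 5×10^5 to 1×10^6 CFU/milliliter. Plates then sat overnight at 37° C. Wells were scored visually for turbidity against a peptide-free control.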

[2] = test system: Staphylococcus epidermidis ATCC 12228; assay: as above; conditions: ATCC 12228
Outline: as §1

Salmonella dublin (Lane) = assay: as above
Outline: as §1

[3] = test system: Escherichia coli ATCC 25922; assay: as above; conditions: ATCC 25922
Outline: as §1

[4] = test system: Candida albicans ATCC 18804; assay: MIC in yeasts, NCCLS M27-A2 broth microdilution, RPMI 1640 (Table 9, letter e); conditions: ATCC 18804
Outline: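 Broth microdilution per NCCLS M27-A2 in RPMI 1640 with glutamine and phenol red, final inoculum 0.5×10^3–2.5×10^3 CFU/milliliter. Incubated 24 to 48 hours at 37° C; MIC is the lowest peptide concentration with no visible growth.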

[5] = test system: Staphylococcus aureus ATCC 29213; assay: MIC, NCCLS M7-A6 broth microdilution, cation-adjusted Mueller Hinton broth (Table 9, no superscript); conditions: ATCC 29213
Outline: as §1

[6] = test system: Propionibacterium acnes ATCC 6919; assay: MIC, agar dilution method NCCLS M11-A6, Brucella agar, anaerobic (Table 9, superscript c); conditions: ATCC 6919
Outline: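 Agar dilution per NCCLS M11-A6 on Brucella agar; final inoculum 1.5×10^8 CFU/milliliter applied to plates, incubated 48-96 hours at 37° C. under anaerobic (GasPak) conditions. MIC = lowest peptide concentration with no colony growth.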

SMILES | MIC P. aeruginosa [1] [µg/mL] | MIC S. epidermidis [2] [µg/mL] | MIC S. dublin (Salmonella dublin (Lane)) [µg/mL] | MIC E. coli [3] [µg/mL] | MIC C. albicans [4] [e ug/mL] | MIC S. aureus [5] [µg/mL] | MIC P. acnes [6] [c ug/mL]
CCCCCCCCCCCC(=O)NCCCC[C@@H](NC(=O)[C@@H](CCCNC(=N)N)NC(=O)[C@@H](CCSC)NC(=O)[C@@H](Cc1ccccc1)NC(=O)[C@@H](CC(N)=O)NC(=O)[C@@H](CCCNC(=N)N)NC(=O)[C@@H](C)NC(=O)[C@H](NC(=O)[C@@H](CC(=O)O)NC(=O)[C@@H](CCCNC(=N)N)NC(=O)[C@@H](Cc1c[nH]c2ccccc12)NC(=O)[C@@H](CCCNC(=N)N)NC(=O)[C@@H](CO)NC(=O)[C@H](N)CCCNC(=N)N)C(C)C)C(N)=O [Peptide 200, H2N-rsrwrdvarnfmrk(Lauryl)-NH2] (H-[dR][dS][dR][dW][dR][dD][dV][dA][dR][dN][dF][dM][dR][dK](Lauroyl)-NH2) | 4 (≈ 1.94 µM) | 1 (≈ 0.486 µM) | 8 (≈ 3.88 µM) | 4 (≈ 1.94 µM) | 8 | 2 (≈ 0.971 µM) | 8
CCCCCCCCCCCCCCCC(=O)NCCCC[C@@H](NC(=O)[C@@H](CCCNC(=N)N)NC(=O)[C@@H](CCSC)NC(=O)[C@@H](Cc1ccccc1)NC(=O)[C@@H](CC(N)=O)NC(=O)[C@@H](CCCNC(=N)N)NC(=O)[C@@H](C)NC(=O)[C@H](NC(=O)[C@@H](CC(=O)O)NC(=O)[C@@H](CCCNC(=N)N)NC(=O)[C@@H](Cc1c[nH]c2ccccc12)NC(=O)[C@@H](CCCNC(=N)N)NC(=O)[C@@H](CO)NC(=O)[C@H](N)CCCNC(=N)N)C(C)C)C(N)=O [Peptide 201, H2N-rsrwrdvarnfmrk(Palmitoyl)-NH2] (H-[dR][dS][dR][dW][dR][dD][dV][dA][dR][dN][dF][dM][dR][dK](Palmitoyl)-NH2) | >64 | 2 (≈ 0.945 µM) | 16 (≈ 7.56 µM) | 32 (≈ 15.1 µM) | 2 | 16 (≈ 7.56 µM) | 16
CCCCCCCCCCCC(=O)N[C@H](CCCNC(=N)N)C(=O)N[C@H](CO)C(=O)N[C@H](CCCNC(=N)N)C(=O)N[C@H](Cc1c[nH]c2ccccc12)C(=O)N[C@H](CCCNC(=N)N)C(=O)N[C@H](CCC(=O)O)C(=O)N[C@@H](C(=O)N[C@H](C)C(=O)N[C@H](CCCNC(=N)N)C(=O)N[C@H](CC(N)=O)C(=O)N[C@H](Cc1ccccc1)C(=O)N[C@H](CC(C)C)C(=O)N[C@H](CCCNC(=N)N)C(N)=O)C(C)C [Peptide 221, Lauryl-rsrwrevarnflr-NH2] (Lauroyl-[dR][dS][dR][dW][dR][dE][dV][dA][dR][dN][dF][dL][dR]-NH2) | 8 (≈ 4.15 µM) | 2 (≈ 1.04 µM) | 8 (≈ 4.15 µM) | 8 (≈ 4.15 µM) | 2 | 4 (≈ 2.08 µM) | 32
CCCCCCCCCCCC(=O)N[C@H](CCCNC(=N)N)C(=O)N[C@H](CCCNC(=N)N)C(=O)N[C@H](CCCNC(=N)N)C(=O)N[C@H](Cc1c[nH]c2ccccc12)C(=O)N[C@H](CCCNC(=N)N)C(=O)N[C@H](CCCNC(=N)N)C(=O)N[C@@H](C(=O)N[C@H](C)C(=O)N[C@H](CCCNC(=N)N)C(=O)N[C@H](CCCNC(=N)N)C(=O)N[C@H](Cc1ccccc1)C(=O)N[C@H](CC(C)C)C(=O)N[C@H](CCCNC(=N)N)C(N)=O)C(C)C [Peptide 222, Lauryl-rrrwrrvarrflr-NH2] (Lauroyl-[dR][dR][dR][dW][dR][dR][dV][dA][dR][dR][dF][dL][dR]-NH2) | 8 (≈ 3.87 µM) | 1 (≈ 0.484 µM) | >64 | 16 (≈ 7.75 µM) | 2 | 4 (≈ 1.94 µM) | >64
CCCCCCCCCCCC(=O)N[C@H](CCCNC(=N)N)C(=O)N[C@H](CCCCN)C(=O)N[C@H](CCCNC(=N)N)C(=O)N[C@H](Cc1c[nH]c2ccccc12)C(=O)N[C@H](CCCNC(=N)N)C(=O)N[C@H](CCCCN)C(=O)N[C@@H](C(=O)N[C@H](C)C(=O)N[C@H](CCCNC(=N)N)C(=O)N[C@H](CCCCN)C(=O)N[C@H](Cc1ccccc1)C(=O)N[C@H](CC(C)C)C(=O)N[C@H](CCCNC(=N)N)C(N)=O)C(C)C [Peptide 223, Lauryl-rkrwrkvarkflr-NH2] (Lauroyl-[dR][dK][dR][dW][dR][dK][dV][dA][dR][dK][dF][dL][dR]-NH2) | 8 (≈ 4.04 µM) | 2 (≈ 1.01 µM) | 32 (≈ 16.1 µM) | 16 (≈ 8.07 µM) | 4 | 4 (≈ 2.02 µM) | >64
CCCCCCCCCCCC(=O)N[C@H](CCCNC(=N)N)C(=O)N[C@H](C)C(=O)N[C@H](CCCNC(=N)N)C(=O)N[C@H](Cc1c[nH]c2ccccc12)C(=O)N[C@H](CCCNC(=N)N)C(=O)N[C@H](CC(=O)O)C(=O)N[C@@H](C(=O)N[C@H](C)C(=O)N[C@H](CCCNC(=N)N)C(=O)N[C@H](CC(N)=O)C(=O)N[C@H](Cc1ccccc1)C(=O)N[C@H](CCSC)C(=O)N[C@H](CCCNC(=N)N)C(N)=O)C(C)C [Peptide 237, Lauryl-rarwrdvarnfmr-NH2] (Lauroyl-[dR][dA][dR][dW][dR][dD][dV][dA][dR][dN][dF][dM][dR]-NH2) | 8 (≈ 4.18 µM) | 1 (≈ 0.522 µM) | 4 (≈ 2.09 µM) | 4 (≈ 2.09 µM) | 16 | 4 (≈ 2.09 µM) | 16
CCCCCCCCCCCC(=O)N[C@H](CCCNC(=N)N)C(=O)N[C@H](CO)C(=O)N[C@H](C)C(=O)N[C@H](Cc1c[nH]c2ccccc12)C(=O)N[C@H](CCCNC(=N)N)C(=O)N[C@H](CC(=O)O)C(=O)N[C@@H](C(=O)N[C@H](C)C(=O)N[C@H](CCCNC(=N)N)C(=O)N[C@H](CC(N)=O)C(=O)N[C@H](Cc1ccccc1)C(=O)N[C@H](CCSC)C(=O)N[C@H](CCCNC(=N)N)C(N)=O)C(C)C [Peptide 238, Lauryl-rsawrdvarnfmr-NH2] (Lauroyl-[dR][dS][dA][dW][dR][dD][dV][dA][dR][dN][dF][dM][dR]-NH2) | 64 (≈ 34.7 µM) | 8 (≈ 4.33 µM) | 8 (≈ 4.33 µM) | 8 (≈ 4.33 µM) | 16 | 8 (≈ 4.33 µM) | 32

More lines, now with the values ahead:

MIC P. aeruginosa [1] [µg/mL] | MIC S. epidermidis [2] [µg/mL] | MIC S. dublin (Salmonella dublin (Lane)) [µg/mL] | MIC E. coli [3] [µg/mL] | MIC C. albicans [4] [e ug/mL] | MIC S. aureus [5] [µg/mL] | MIC P. acnes [6] [c ug/mL] | SMILES
>64 | 8 (≈ 4.03 µM) | 32 (≈ 16.1 µM) | >64 | 8 | 16 (≈ 8.05 µM) | 32 | CCCCCCCCCCCCCCCC(=O)N[C@H](CCCNC(=N)N)C(=O)N[C@H](CO)C(=O)N[C@H](CCCNC(=N)N)C(=O)N[C@H](Cc1c[nH]c2ccccc12)C(=O)N[C@H](CCCNC(=N)N)C(=O)N[C@H](CC(=O)O)C(=O)N[C@@H](C(=O)N[C@H](C)C(=O)N[C@H](CCCNC(=N)N)C(=O)N[C@H](CC(N)=O)C(=O)N[C@H](Cc1ccccc1)C(=O)N[C@H](CCSC)C(=O)N[C@H](CCCNC(=N)N)C(N)=O)C(C)C [Peptide 209, Palmitoyl-rsrwrdvarnfmr-NH2] (Palmitoyl-[dR][dS][dR][dW][dR][dD][dV][dA][dR][dN][dF][dM][dR]-NH2)
32 (≈ 17.6 µM) | 4 (≈ 2.2 µM) | 64 (≈ 35.2 µM) | 16 (≈ 8.81 µM) | 64 | 16 (≈ 8.81 µM) | 8 | CCCCCCCCCCCC(=O)N[C@H](CCCNC(=N)N)C(=O)N[C@H](CO)C(=O)N[C@H](CCCNC(=N)N)C(=O)N[C@H](C)C(=O)N[C@H](CCCNC(=N)N)C(=O)N[C@H](CC(=O)O)C(=O)N[C@@H](C(=O)N[C@H](C)C(=O)N[C@H](CCCNC(=N)N)C(=O)N[C@H](CC(N)=O)C(=O)N[C@H](Cc1ccccc1)C(=O)N[C@H](CCSC)C(=O)N[C@H](CCCNC(=N)N)C(N)=O)C(C)C [Peptide 239, Lauryl-rsrardvarnfmr-NH2] (Lauroyl-[dR][dS][dR][dA][dR][dD][dV][dA][dR][dN][dF][dM][dR]-NH2)
16 (≈ 8.67 µM) | 2 (≈ 1.08 µM) | 4 (≈ 2.17 µM) | 4 (≈ 2.17 µM) | 16 | 2 (≈ 1.08 µM) | 16 | CCCCCCCCCCCC(=O)N[C@H](CCCNC(=N)N)C(=O)N[C@H](CO)C(=O)N[C@H](CCCNC(=N)N)C(=O)N[C@H](Cc1c[nH]c2ccccc12)C(=O)N[C@H](C)C(=O)N[C@H](CC(=O)O)C(=O)N[C@@H](C(=O)N[C@H](C)C(=O)N[C@H](CCCNC(=N)N)C(=O)N[C@H](CC(N)=O)C(=O)N[C@H](Cc1ccccc1)C(=O)N[C@H](CCSC)C(=O)N[C@H](CCCNC(=N)N)C(N)=O)C(C)C [Peptide 240, Lauryl-rsrwadvarnfmr-NH2] (Lauroyl-[dR][dS][dR][dW][dA][dD][dV][dA][dR][dN][dF][dM][dR]-NH2)
